Test results taken from PMC6115460, “Extreme amyloid polymorphism in Staphylococcus aureus virulent PSMα peptides” (Nature Communications, 2018).

Tests used:
[1] = system: Micrococcus luteus; assay: Disc diffusion assay testing antibacterial activity; type: cell-based; settings: peptide 50 mg ml−1 in ultra-pure water (LFKFFK, KLFKFFK) or DMSO (IIKVIK, IIKIIK) loaded on discs, LB-agar, incubated over-night, coincides with activity in solution (Supplementary Fig. 4)
Procedure: (§1) Micrococcus luteus (an environmental isolate) was a kind gift from Prof. Charles Greenblatt from the Hebrew university in Jerusalem, Israel. An inoculum was grown in Luria-Bertani (LB) medium at 30 °C with 220 rpm shaking overnight. Staphylococcus hominis (ATTC 27844) and Staphylococcus aureus (ATCC 25923) were purchased from ATCC, USA. An inoculum was grown in brain-heart infusion (BHI) media at 37 °C with 220 rpm shaking overnight.
(§2) Bacterial cultures were grown overnight as described above and diluted 1000-fold to a fresh media until growth reached to optical density of ~0.4 measured at 600 nm (OD600). The refreshed cultures were plated on LB-agar or BHI-agar according to the bacterial strain. The antibacterial activity of PSMα segments was examined: Lyophilized peptides were dissolved in ultra-pure water (LFKFFK and KLFKFFK) or DMSO (IIKVIK and IIKIIK) to a final concentration of 50 mg ml^−1. The concentrated peptide solutions were loaded on blank antimicrobial susceptibility discs (Oxoid, UK). Discs loaded with ultra-pure water or DMSO were used as controls. The discs were gently placed on bacteria plated agar and incubated over-night at the appropriate temperatures.

[2] = system: Staphylococcus hominis; assay: as above; type: cell-based; settings: ATTC 27844, peptide 50 mg ml−1 in ultra-pure water (LFKFFK, KLFKFFK) or DMSO (IIKVIK, IIKIIK) loaded on discs, BHI-agar, incubated over-night, coincides with activity in solution (Supplementary Fig. 4)
Procedure: as §1, §2

[3] = Fibril thermal-stability assay (TEM); type: physicochemical; settings: 10 mM (LFKFFK in ultra-pure water, IIKIIK in DMSO), 3 days at room temperature, 50 °C for 5 min, then cooled at room temperature 20 min
Procedure: For the fibril thermal-stability assay (Fig. 5), peptides were dissolved to 10 mM (LFKFFK in ultra-pure water and IIKIIK in DMSO) and incubated at room temperature for 3 days. Samples were applied directly onto copper TEM grids and stained as described above. The samples were then incubated at 50 °C in a pre-heated thermoblock for 5 min and immediately applied onto TEM grids. The samples were then allowed to cool down at room temperature for 20 min and applied onto TEM grids. Micrographs were recorded as described above.

[4] = Fibril formation by transmission electron microscopy; type: physicochemical; settings: negative stain TEM
Procedure: Fibrillated PSMα1 and PSMα4 samples were collected following the ThT fibrillation kinetics assay (as described above) by combining the contents of 2–3 wells from the plate. Solutions were centrifuged at 21,000 × g and the supernatant was discarded. The pellet containing the fibrils was re-suspended in 20 μl of ultra-pure water.
Fibril formation of the short segments, IIKIIK, IIKVIK, LFKFFK and KLFKFFK, was examined for peptides dissolved directly from the powder form. IIKVIK from PSMα1 and IIKIIK from PSMα4 were re-suspended to 20 mM with 75% DMSO in ultra-pure water and incubated for about 1 week at room temperature (Fig. 2b). LFKFFK and KLFKFFK from PSMα3 were re-suspended in ultra-pure water to 10 mM. LFKFFK was incubated for about a month and KLFKFFK was incubated for 14 days at room temperature (Fig. 3b).
Five-microliter samples were applied directly onto copper TEM grids with support films of Formvar/Carbon (Ted Pella), which were charged by glow-discharge (PELCO easiGlow, Ted Pella) immediately before use. Grids were allowed to adhere for 2 min and negatively stained with 5 μl of 2% uranyl acetate solution. Micrographs were recorded using FEI Tecnai G2 T20 S-Twin transmission electron microscope operated at an accelerating voltage of 200 KeV (located at the Department of Materials Science & Engineering at the Technion, Israel), FEI Tecnai G2 T12 TEM operated at an accelerating voltage of 120 kV (located at the Russell Berrie Electron Microscopy Center of Soft Matter at the Technion, Israel). Images were recorded digitally by a Gatan US 1000 CCD camera using the DigitalMicrograph® software.

[5] = system: Staphylococcus aureus; assay: Disc diffusion assay testing antibacterial activity; type: cell-based; settings: ATCC 25923, peptide 50 mg ml−1 in ultra-pure water loaded on discs, BHI-agar, incubated over-night
Procedure: as §1, §2

[6] = Thioflavin T fluorescence fibrillation kinetics assay; settings: 50 µM peptide, 200 µM ThT; Tris buffer pH 7.5 (PSMα1 and mutant) or ultra-pure water (PSMα4 and mutant); 37 °C; about 100 h; mean of triplicates
Procedure: Final concentrations for each reaction were 50 µM peptide (PSMα1, PSMα4, or their mutants) and 200 µM ThT. Blank solutions were also prepared for each reaction, containing everything but the peptides. The reaction mixture was carried out in a black 96-well flat-bottom plate (Greiner bio-one) covered with a thermal seal film (EXCEL scientific) and incubated in a plate reader (CLARIOstar BMG LABTECH) at a temperature of 37 °C with 500 rpm shaking for 85 s before each reading cycle, and up to 1000 cycles of 6 min each. Measurements were made in triplicates. Fluorescence was measured by excitation at 438 ± 20 nm and emission at 490 ± 20 nm over a period of about 100 h. All triplicate values were averaged, appropriate blanks were subtracted, and the resulting values were plotted against time. Calculated standard errors of the mean are presented as error bars. The entire experiment was repeated at least three times on different days.

[7] = 20 mM in 75% DMSO in ultra-pure water, about 1 week at room temperature
[8] = 10 mM in ultra-pure water, room temperature, LFKFFK about a month, KLFKFFK 14 days

IIKIIK [spine segment of PSMα4; acetylated N-terminus and amidated C-terminus, or unmodified termini for crystallography]
antibacterial activity against M. luteus [1]: do not elicit antibacterial activity
antibacterial activity against S. hominis [2]: do not elicit antibacterial activity
thermal stability of fibrils [3]: remain stable
fibril formation, electron micrographs [4, 7]: fibrils

IIKVIK [spine segment of PSMα1; acetylated N-terminus and amidated C-terminus, or unmodified termini for crystallography]
antibacterial activity against M. luteus [1]: do not elicit antibacterial activity
antibacterial activity against S. hominis [2]: do not elicit antibacterial activity
fibril formation, electron micrographs [4, 7]: fibrils

KLFKFFK [one-residue longer PSMα3 segment]
antibacterial activity against M. luteus [1]: dose-dependent antibacterial activity
antibacterial activity against S. hominis [2]: dose-dependent antibacterial activity
toxicity to S. aureus [5]: not toxic
fibril formation, electron micrographs [4, 8]: straight and twisted crystalline fibrils

LFKFFK [truncated segment of PSMα3; acetylated N-terminus and amidated C-terminus, or unmodified termini for crystallography]
antibacterial activity against M. luteus [1]: dose-dependent antibacterial activity
antibacterial activity against S. hominis [2]: dose-dependent antibacterial activity
toxicity to S. aureus [5]: not toxic
thermal stability of fibrils [3]: dissolve upon heating to 50 °C, and reform upon cooling
fibril formation, electron micrographs [4, 8]: fibrils and nano-crystals

MAIVGTIPKPIKAIIDIFAK
Thioflavin T binding [6]: no ThT binding

MGIIAGPIPVIKSLIEQFTGK
Thioflavin T binding [6]: no ThT binding
